In patent US20240409607A1, “STABILIZED MHC MOLECULES” (Immatics Biotechnologies GmbH, priority 2021, published 2024):

Key:
HLA-A*02:01_ds 22-71 [1] = assay: TSA with fatty acids in 20 mM HEPES pH 7.0; assay type: binding, human; settings: 50 mM fatty acid, 20 mM HEPES pH 7.0, protein 0.1 mg/ml
Experimental: (§1) After refolding the protein was concentrated by ultrafiltration and purified by size exclusion chromatography. Fatty acids were dissolved in or diluted with water and neutralized with NaOH to give stock solution of 0.5 M pH 7.
In order to find optimal storage and handling conditions for peptide free recombinant HLA-A*02:01 preparations, different compounds were screened in a thermal shift assay (TSA). […] The additives indicated in table 3 were added or alternatively water was added as a control. The raw data was exported and the analysis of the melting temperature was performed in Microsoft Excel. Protein stability was monitored over a temperature range from 30° C. to 70° C. […] The temperature at which the maximal increase of fluorescence compared to the previous measurement was observed, is defined as melting point in the respective composition.

HLA-A*02:01_ds 22-71 [2] = settings: 0.1 mg/ml protein, 20 mM Tris pH 8.0, 150 mM NaCl; for protein stability (melting point) in thermal shift assay: sodium butyrate 50 mM, GM dipeptide 10 mM, water as control
Experimental: as §1
(§2) In order to find optimal storage and handling conditions for peptide free recombinant HLA-A*02:01 preparations, different compounds were screened in a thermal shift assay (TSA). Measurements were performed in the Applied Biosystems 7500 real time PCR instrument at a protein concentration of 0.1 mg/ml in a buffer of 20 mM Tris pH 8.0, 150 mM NaCl. The additives indicated in table 3 were added or alternatively water was added as a control. The raw data was exported and the analysis of the melting temperature was performed in Microsoft Excel. Protein stability was monitored over a temperature range from 30° C. to 70° C. […] The temperature at which the maximal increase of fluorescence compared to the previous measurement was observed, is defined as melting point in the respective composition.

HLA-A*02:01 ds_84-139 = assay: TSA with fatty acid and/or GM loading dipeptide; assay type: binding, human; settings: fatty acid 50 mM final or GM 10 mM final
Experimental: as §2
(§3) Reference is made to FIGS. 5 to 7.

HLA-A*02:01_ds_22-71 = assay: TSA with fatty acid and/or GM loading dipeptide; assay type: binding, human; settings: fatty acid 50 mM final or GM 10 mM final
Experimental: as §2, §3

HLA-A*0201 ds 22-71 = assay: TSA-screen with 40 different buffer conditions (different pH); assay type: binding, human; settings: valeric acid 50 mM
Experimental: In a parallel TSA-screen with 40 different buffer conditions (MES pH between 5.8 to 7.2; BisTris pH between 5.8 to 7.2; MOPS pH between 6.5 to 7.9; HEPES pH 6.8 to 8.2; and Tris pH between 7.6 to 9.0), a clear link between pH conditions and stability of recombinant HLA was detected. In this experiment, a solution of 0.1 mg/ml HLA-A*0201 ds 22-71 in 20 mM HEPES pH 7.0 was supplemented with 0.1 volume of 1 M stock solution of the respective buffer. […] This pH range was also found to be optimal for peptide loaded HLA molecules. In order to test whether HLA is stabilized in different pH conditions by the fatty acids, a TSA-screen with the same 40 different buffer conditions was performed as described above. […] Accordingly, the stabilizing effect of the fatty acid on the HLA molecule was observed under different pH conditions.

CC(C)CCC(=O)O [4-methyl-valeric acid, 4-methyl-pentanoic acid]
stabilizing effect on the HLA molecule (melting point), branched or unsaturated versus linear saturated fatty acids (HLA-A*02:01_ds 22-71 [1]): showed a stabilizing effect on the HLA molecule

CSCC[C@H](N)C(=O)O.NCC(=O)O [glycine-methionine, reference compound]
protein stability (melting point) in thermal shift assay (HLA-A*02:01_ds 22-71 [2]): marked increase in protein stability
stabilization of the HLA protein, single additive (HLA-A*02:01 ds_84-139): Stabilization of the HLA proteins was observed
stabilization of the HLA protein, single additive (HLA-A*02:01_ds_22-71): Stabilization of the HLA proteins was observed

CCCCCC(=O)O [hexanoic acid]
stabilization of the HLA protein, single additive (HLA-A*02:01 ds_84-139): Stabilization of the HLA proteins was observed
stabilization of the HLA protein, single additive (HLA-A*02:01_ds_22-71): Stabilization of the HLA proteins was observed

CCCC(=O)[O-].[Na+] [sodium butyrate, Sodium butyrate]
stabilizing effect compared to the dipeptide glycine-methionine (HLA-A*02:01_ds 22-71 [2]; sodium butyrate 50 mM vs GM 10 mM): increased stabilizing effect
protein stability (melting point) in thermal shift assay (HLA-A*02:01_ds 22-71 [2]): marked increase in protein stability
stabilization of the HLA protein, single additive (HLA-A*02:01 ds_84-139): Stabilization of the HLA proteins was observed
stabilization of the HLA protein, single additive (HLA-A*02:01_ds_22-71): Stabilization of the HLA proteins was observed

CCCCC(=O)O [valeric acid, Pentanoic acid]
stabilizing effect compared to tests without the fatty acid (HLA-A*0201 ds 22-71; 40 buffer conditions, MES, BisTris, MOPS, HEPES, Tris, pH 5.8 to 9.0, 100 mM buffer): increased in all pH conditions tested
stabilizing effect in the pH range of 6 to 7.2 (HLA-A*0201 ds 22-71; pH 6 to 7.2): particularly increased
stabilization of the HLA protein, single additive (HLA-A*02:01 ds_84-139): Stabilization of the HLA proteins was observed
stabilization of the HLA protein, single additive (HLA-A*02:01_ds_22-71): Stabilization of the HLA proteins was observed
